# Measured values from patent US20260216063A1, “METHODS OF SUPPRESSING FREE DNA AND COMPOSITIONS THEREOF” (PS Therapy, Inc., priority 2023, published 2026).
# Legend:
# TNF-alpha [1] = test: TNF-alpha ELISA in differentiated THP-1 cells infected with P. aeruginosa DNA; format: cell-based, human; settings: 6 micrograms P. aeruginosa DNA, 24 hours post infection; DNA alone 1,200
# Method: 3 sets of differentiated THP-1 cells were infected with 6 micrograms of […], 6 micrograms of P. aeruginosa DNA and composition A from Table 1, above, 6 micrograms of P. aeruginosa DNA and moxifloxacin, or 6 micrograms of P. aeruginosa DNA, moxifloxacin and composition A. 24 hours post infection the cells were assayed for TNF-alpha protein levels via ELISA. Results of this study can be found in FIGS. 3A and 3B.
# free DNA = test: Free DNA binding, ethidium bromide displacement assay; settings: incubated with free DNA in a petri dish
# Method: Voriconazole, moxifloxacin, composition A from Table 1, above, a combination of voriconazole and composition A and a combination of moxifloxacin and composition A were each individually incubated with free DNA in a petri dish with and without the addition of voriconazole or moxifloxacin. The percentage of free DNA bound was measured using an ethidium bromide displacement assay. See results in FIG. 1.
# Compositions #1-3 from Table 1, above, were each individually incubated with free DNA in a petri dish at concentrations of 1% and 10% in PBS buffer. The percentage of free DNA bound was measured using an ethidium bromide displacement assay.
# TNF-alpha [2] = test: TNF-alpha ELISA in differentiated THP-1 cells infected with A. flavus DNA; format: cell-based, human; settings: 6 micrograms A. flavus DNA, 24 hours post infection; DNA alone 180
# Source text: Tumor Necrosis Factor alpha secretion (“TNF-alpha”) is a marker for DNA-induced inflammation. See, Campbell et al., CpG-containing immunostimulatory DNA sequences elicit TNF-alpha-dependent toxicity in rodents but not in humans, 2009, J Clin Invest, 119(9), 2564-2576. 3 sets of differentiated human leukemia monocytic (“differentiated THP-1”) cells were infected with 6 micrograms of A. flavus DNA, 6 micrograms of A. flavus DNA and composition A, 6 micrograms of A. flavus DNA and voriconazole, or 6 micrograms of A. flavus DNA, voriconazole and composition A. 24 hours post infection the cells were assayed for TNF-alpha protein levels via enzyme-linked immunosorbent assays (“ELISA”). Results of this study can be found in FIGS. 2A and 2B.
# 6 sets of differentiated THP-1 cells were infected with 1) nothing, 2) lipofectamine™ 2000 transfectin reagent, 3) 6 micrograms of A. flavus DNA, 4) 6 micrograms of A. flavus DNA and composition #1 from Table 1, above, 5) 6 micrograms of A. flavus DNA and composition #2 from Table 1, above, 6) 6 micrograms of A. flavus DNA and composition #3 from Table 1, above. 24 hours post infection the cells were assayed for TNF-alpha protein levels via ELISA.
percentage of free DNA bound (free DNA) [%],SMILES,TNF-alpha protein levels (TNF-alpha [1]) [picograms per milliliter],TNF-alpha protein levels (TNF-alpha [2]) [picograms per milliliter]
,COc1c(N2C[C@@H]3CCCN[C@@H]3C2)c(F)cc2c(=O)c(C(=O)O)cn(C3CC3)c12 [moxifloxacin],450,
0,C[C@@H](c1ncncc1F)[C@](O)(Cn1cncn1)c1ccc(F)cc1F [voriconazole],,85
